Measurements published in patent US20020177526A1, “Insecticidal seed coating” (priority 1996, published 2002).

Columns and labels:
corn rootworm larvae [1] = test: Corn rootworm growth chamber bioassay (16 oz cup); type: in vivo; conditions: Iowa scale 1-6
From the text: (§1) Hybrid corn seeds with and without an insecticidal coating are planted in Nebraska, Iowa, Minnesota, Wisconsin and Illinois to determine the efficacy of various coated seed treatments in standard tests. All seeds contain a Captan pretreatment whether or not a coating is applied. Additionally, an overcoat layer is applied to all coated seed which comprises the coating described in Example 2. Banded granular insecticides are applied at the manufactures label rates using granular insecticide applicators. Plot size for each treatment is two ten foot rows spaced 30 inches apart with four replications of each treatment at each location. Non-diaposing 1st instar Western Corn Rootworm larvae are side dressed on both sides of the corn plants in the row at a rate of 800 eggs per foot of row. Application of the insect larvae is made when the corn seedlings are approximately at the two leaf stage. The placement of the larvae is approximately two inches to the side of the corn plants and two inches below the soil surface. Plots are maintained with normal cultural practices until the corn plants reach the flowering stage. At late brown silk stage, 10 sequential roots from each plot are obtained. The corn stalks are cut at approximately 12 inches above the soil line. Each corn root is washed and after washing the roots are rated on a scale of 1-6 using the Iowa Root Rating Method developed at Iowa State University (Hills and Peters, 1971) and used commonly throughout the corn belt. In the rating, 1=no damage or only a few minor feeding scars; 2=feeding scars evident but no roots eaten off to within 1½ inch of the plant; 3=several roots eaten off to within 1½ inch of the plant but never the equivalent of an entire node of roots is destroyed; 4=one root node completely destroyed; 5=two root nodes completely destroyed and 6=three or more root nodes destroyed. A destroyed root is defined as a root that has been pruned to within 1½ inch of the base. […] In addition, a growth chamber and a greenhouse bioassay was used to determine the effect of insecticidal seed coating on corn rootworm control. For growth chamber assay, corn seed was planted in a 16 oz cup with garden Jiffymix, and allowed to grow for two weeks. Twenty neonate corn rootworm larvae are placed in the Jiffymix near corn roots and allowed to feed for approximately 2 weeks. The larvae are then screened out and the % mortality of the larvae is determined. Each corn root is washed and after washing the roots are rated on a scale of 1-6 using the Iowa Root Rating Method developed at Iowa State University (Hills and Peters, 1971). Some of the results are indicated below in Table 3. The greenhouse assay use 2 gallon pot with 20 mesh corn field soil. Forty corn rootworm larvae are placed in each pot when corn plant was at 4 to 5-leaf stage, and allowed to feed for 2 to 3 weeks. Each corn root is washed and after washing the roots are rated on a scale of 1-6 using the Iowa Root Rating Method developed at Iowa State University (Hills and Peters, 1971). Some of the results are indicated below in Table 3.
(§2) Maize seed is treated as described in Examples 1 and 2. A combination of methyl cellulose and polyvinyl alcohol is used as a binder and Celite 266 is used as filler for insecticide solution, which contains the compound of formula II as the insecticide. Bioassay methods are as described in Example 4. Root rating was based on the Iowa State 1-6 scale.

corn rootworm larvae [2] = test: Corn rootworm greenhouse bioassay (2 gal pot); type: in vivo; conditions: Iowa scale 1-6
From the text: as §1, §2

| SMILES | Growth Chamber (16 oz cup) Root Rating (corn rootworm larvae [1]; 0.01 mg/seed (combination: plus Raze 0.13 mg/seed)) | Growth Chamber (16 oz cup) Root Rating (corn rootworm larvae [1]; 0.03 mg/seed) | Growth Chamber (16 oz cup) Root Rating (corn rootworm larvae [1]; 0.3 mg/seed (combination: plus Raze 0.13 mg/seed)) | Growth Chamber (16 oz cup) Root Rating (corn rootworm larvae [1]; 0.6 mg/seed) | Growth Chamber (16 oz cup) Root Rating (corn rootworm larvae [1]; 0.8 mg/seed) | Growth Chamber (16 oz cup) Root Rating (corn rootworm larvae [1]; 1.0 mg/seed) | Greenhouse (2 gal pot) Root Rating (corn rootworm larvae [2]; 0.6 mg/seed) | Greenhouse (2 gal pot) Root Rating (corn rootworm larvae [2]; 1.2 mg/seed) | Greenhouse (2 gal pot) Root Rating (corn rootworm larvae [2]; 1.5 mg/seed) | Greenhouse (2 gal pot) Root Rating (corn rootworm larvae [2]; 2.0 mg/seed) | Greenhouse (2 gal pot) Root Rating (corn rootworm larvae [2]; 1.0 mg/seed) |
| --- | --- | --- | --- | --- | --- | --- | --- | --- | --- | --- | --- |
| CN1COCN(Cc2cnc(Cl)s2)/C1=N/[N+](=O)[O-] [Formula II] | 5.30 | 4.30 | 2.70 | 2.10 | 2.30 | 2.10 | 2.73 | 3.08 | 2.96 | 2.90 | – |
| Cc1c(F)c(F)c(COC(=O)[C@@H]2[C@H](/C=C(\Cl)C(F)(F)F)C2(C)C)c(F)c1F [Tefluthrin 50%, tefluthrin, reference compound] | – | – | – | – | – | 2.30 | – | – | – | – | 3.52 |
